Source: US20210283107A1, “Methods to Expand the Spectrum of Gram-Positive Antibiotics” (NORTH CAROLINA STATE UNIVERSITY, priority 2016, published 2021)
“And” between values parts separate entries of the source, which are not always exact repeats. Equal values may be shown once.

Experiments:
Type in all cases: cell-based, Acinetobacter baumannii
[1] = test system: A. baumannii strain 5075; assay: Time kill curve; conditions: for growth similar to the control after: AB5075, time kill curve; for Initial toxicity seen until (time point): AB5075 growth, time kill curve
Protocol: A. baumannii strain 5075 was grown in the presence of compound 1 at either 20 μM or 30 μM, and samples were plated at 2, 4, 6, 8, and 24 hour time points. Initial toxicity was seen until the 4-hour time point for 20 μM and 8-hour time point for 30 μM; however, growth was similar to the control after 6 hours for 20 μM and 24 hours for 30 μM.
A. baumannii 5075 was grown overnight (16 hours) in CAMHB at 37° C. with shaking. This culture was then subcultured to 5×10^5 CFU/mL in fresh CAMHB. The inoculated media was aliquoted (3 mL) into culture tubes, and the compound was added from 100 mM stock solutions. Untreated inoculated culture tubes served as the control, and tubes were incubated at 37° C. with shaking. Samples were taken at 2, 4, 6, 8, and 24 hour time points and were serially diluted in fresh CAMHB and plated on LB agar. Plates were incubated under stationary conditions overnight at 37° C. After incubation, colonies were enumerated and growth curves were constructed.

[2] = test system: AB5075; assay: Checkerboard assay for FIC determination with colistin; conditions: chequerboard, ΣFIC≥2 considered antagonistic
Protocol: Against AB5075, we determined that the ΣFIC with compound 1 to be 17 and the ΣFIC with compound 10 to be 33. These ΣFIC values indicate that both compounds are highly antagonistic with colistin as a ΣFIC≥2 is considered antagonistic.
Day Cultures (6 h) of A. baumannii 5075 were subcultured to 5×10^5 CFU/mL in cation adjusted Mueller-Hinton broth (CAMHB). 100 μL of the inoculated media was distributed into all wells of a 96-well plate except well 1A. Inoculated CAMHB (200 μL) containing compound (twice the highest concentration tested) was added to well 1A, and 100 μL of the same sample was added to wells 2A-12A. The contents in column A were mixed five times before 100 μL was transferred to column B. The contents of column B were mixed 5 times before transferring to column C. This process was repeated with the remainder of the columns up to column G. Column H was not mixed to allow determination of the antibiotic MIC alone. […] Row 12 was not mixed so that the MIC of the compound alone could be determined. The MICs of both compound and antibiotic alone were recorded, as well as the wells containing the combination. The ΣFICs were calculated as follows: ΣFIC=FIC (Compound)+FIC (antibiotic), where FIC (compound) is the MIC of the compound in the combination/MIC of the compound alone and the FIC (antibiotic) is the MIC of the antibiotic in combination/the MIC of the antibiotic alone. […]

[3] = test system: AB5075; assay: H33342 accumulation assay (efflux)
Protocol: In addition to the evaluation of the relationship between compounds 1 and 4 and colistin, the impact of compound 1 on efflux was evaluated using AB5075 and a bisBenzimide H33342 trihydrochloride (H33342) accumulation assay. Using a procedure adapted from Coldham et al. (A 96-well plate fluorescence assay for assessment of cellular permeability and active efflux in Salmonella enterica serovar Typhimurium and Escherichia coli. J Antimicrob Chemother, 2010. 65(8): p. 1655-63) and Richmond et al. (Efflux in Acinetobacter baumannii can be determined by measuring accumulation of H33342 (bis-benzamide). J Antimicrob Chemother, 2013. 68(7): p. 1594-600), the effect of no treatment, a known inhibitor carbonyl cyanide-m-chlorophenyl hydrazone (CCCP), and compound 1 on efflux was analyzed over 30 minutes and in two different treatment variations. Fluorescence was read using excitation and emission filters of 355 and 460 nm, and the values were processed in excel. The first analysis was performed immediately after treating the bacteria with compound 1 at both 10 and 30 μM and CCCP at 25 μM.
The second analysis was performed after exposing the bacteria to compound 1 at 30 μM for 5-hours shaking at 37° C.

[4] = test system: A. baumannii mutant AB522; assay: Dose dependent resistance suppression (antibiotic MIC with compound) in AB522
Protocol: There was no notable reduction in antibiotic MIC observed with either compound and both strains 522 and 1310. […] Even at the highest concentration, no potentiation was observed.
Day Cultures (6 h) were subcultured to 5×10^5 CFU/mL in cation adjusted Mueller-Hinton broth (CAMHB). […] One milliliter of the resulting solution was aliquoted into a separate culture tube and was dosed with antibiotic so that the resulting concentration was the highest desirable concentration to be tested. Bacteria treated with antibiotic alone were used as a control. Row one of a 96-well plate was filled with 200 μL of the antibiotic/compound solution, and the remaining rows were filled with 100 μL of the remaining 4 mL bacterial subculture. The wells in row one were mixed five times before 100 μL was transferred to the following row (row two). Row two was then mixed five times, and 100 μL was transferred to row three. This process was repeated until the second to last row had been reached. The last row is left unexposed to antibiotic in order to serve as a negative control. The antibiotic only treated bacteria was plated by aliquoting 200 μL of the treated bacteria into row one and filling the remaining rows with untreated bacteria from the original bacteria subculture. The rows were mixed in the same way as described above. Plates were covered with Glad Press n'Seal and were incubated under stationary conditions at 37° C. for 16 hours. MIC values were recorded as the lowest concentration at which no bacterial growth was observed. Fold reductions were determined by comparison of the compound treated wells with the antibiotic only treated control wells.

Compound: Nc1nc(-c2ccc(NC(=O)c3cc(Cl)cc(Cl)c3)cc2)c[nH]1 [Compound 1]
- growth similar to the control after ([1]; compound alone at 20 μM): 6 h
- Initial toxicity seen until (time point) ([1]; compound alone at 20 μM): 4 h
- growth similar to the control after ([1]; compound alone at 30 μM): 24 h
- Initial toxicity seen until (time point) ([1]; compound alone at 30 μM): 8 h
- ΣFIC with colistin [2]: 17
- H33342 accumulation, fluorescence at 355 and 460 nm ([3]; 10 μM compound, immediately following exposure, time 0 minutes): 14,084.3 ± 2,839.3
- H33342 accumulation, fluorescence at 355 and 460 nm ([3]; 10 μM compound, immediately following exposure, time 10 minutes): 12,812.4 ± 2,718.2
- H33342 accumulation, fluorescence at 355 and 460 nm ([3]; 10 μM compound, immediately following exposure, time 20 minutes): 11,627.8 ± 3,119
- H33342 accumulation, fluorescence at 355 and 460 nm ([3]; 10 μM compound, immediately following exposure, time 30 minutes): 12,147.8 ± 2,742.8
- H33342 accumulation, fluorescence at 355 and 460 nm ([3]; 30 μM compound, following exposure for 5 hours, time 0 minutes): 12,226.7 ± 4,671.7
- H33342 accumulation, fluorescence at 355 and 460 nm ([3]; 30 μM compound, following exposure for 5 hours, time 10 minutes): 15,247 ± 5,499.3
- H33342 accumulation, fluorescence at 355 and 460 nm ([3]; 30 μM compound, following exposure for 5 hours, time 20 minutes): 25,603.1 ± 5,212.9
- H33342 accumulation, fluorescence at 355 and 460 nm ([3]; 30 μM compound, following exposure for 5 hours, time 30 minutes): 33,441.1 ± 3,260.3
- H33342 accumulation, fluorescence at 355 and 460 nm ([3]; 30 μM compound, immediately following exposure, time 0 minutes): 21,152.2 ± 5,161.7
- H33342 accumulation, fluorescence at 355 and 460 nm ([3]; 30 μM compound, immediately following exposure, time 10 minutes): 21,651 ± 8,731.7
- H33342 accumulation, fluorescence at 355 and 460 nm ([3]; 30 μM compound, immediately following exposure, time 20 minutes): 19,748.3 ± 9,182.4
- H33342 accumulation, fluorescence at 355 and 460 nm ([3]; 30 μM compound, immediately following exposure, time 30 minutes): 19,562.4 ± 9,574
- H33342 fluorescence versus untreated ([3]; after exposure to compound at 30 μM for 5 hours): comparable fluorescence values
- change in H33342 fluorescence over 30 minutes ([3]; immediately after treating, compound 1 at both 10 and 30 μM, CCCP at 25 μM): a decrease in fluorescence
- Azithromycin MIC ([4]; compound Conc. Tested 2 (μM)): 8 µg/mL and 4 µg/mL
- Clarithromycin MIC ([4]; compound Conc. Tested 2 (μM)): 1 µg/mL
- Erythromycin MIC ([4]; compound Conc. Tested 2 (μM)): 2 µg/mL
- Vancomycin MIC ([4]; compound Conc. Tested 2 (μM)): 64 µg/mL
- Azithromycin MIC ([4]; compound Conc. Tested 3 (μM)): 4 µg/mL and 8 µg/mL
- Clarithromycin MIC ([4]; compound Conc. Tested 3 (μM)): 1 µg/mL
- Erythromycin MIC ([4]; compound Conc. Tested 3 (μM)): 2 µg/mL and 4 µg/mL
- Vancomycin MIC ([4]; compound Conc. Tested 3 (μM)): 64 µg/mL
- Azithromycin MIC ([4]; compound Conc. Tested 4 (μM)): 4 µg/mL
- Clarithromycin MIC ([4]; compound Conc. Tested 4 (μM)): 1 µg/mL
- Erythromycin MIC ([4]; compound Conc. Tested 4 (μM)): 4 µg/mL and 2 µg/mL
- Vancomycin MIC ([4]; compound Conc. Tested 4 (μM)): 32 µg/mL
- Azithromycin MIC ([4]; compound Conc. Tested 5 (μM)): 4 µg/mL
- Clarithromycin MIC ([4]; compound Conc. Tested 5 (μM)): 0.5 µg/mL
- Erythromycin MIC ([4]; compound Conc. Tested 5 (μM)): 2 µg/mL
- Vancomycin MIC ([4]; compound Conc. Tested 5 (μM)): 32 µg/mL
